Laboratory results taken from paper PMC7156724, “Potent BRD4 inhibitor suppresses cancer cell-macrophage interaction” (Nature Communications, 2020).
Several values for one entry are separate records, joined by “and”; a condition that tells them apart may be missing. Equal entries are not always repeated.

Assays:
BRD4 (BD1+BD2) = biological target: T1, BRD4 (BD1+BD2) (Homo sapiens, UniProt O60885); assay: BRD4 (BD1+BD2) TR-FRET binding assay; conditions: for Biochemical activity against BRD4 (BD1 + BD2): replicates; for IC50: average IC50, nM, read-out: IC50, biochemical activity against BRD4 (BD1 + BD2)
T1 construct: purchased BPS 32612
Excerpt: 2. BRD4 binding assay. The inhibitory effects of NHWD-530, NHWD-540, NHWD- […]
(BPS, Cat # 32612) per manufacturer’s instructions. […]

[1] = tested on: NCI-H211 small cell lung cancer (SCLC) cells; assay: AlamarBlue assay, NCI-H211; type: cell-based; conditions: for Cellular activity in SCLCs (H211), alamarBlue: Fig.1e, replicates; for IC50: Homo sapiens, NCI-H211, 72 h, 72 h treatment, nM, read-out: IC50, cellular activity in NCI-H211 (alamarBlue)
Experimental: (§1) 3. AlamarBlue assay. AlamarBlue was made by resazurin sodium salt (Sigma, Cat
(§2) # 199303) dissolved in PBS.
(§3) NCI-H211, MDA-MB231 and A375 cells were plated in 96-well plates at approximately 30% confluence and left overnight to adhere. In the following day, […]
(§4) of treatment, 10 μl AlamarBlue reagent (0.3 mg/ml) was added to each well, and after 18h, the florescence intensity in each well was measured using a top-reading fluorescent plate reader with excitation at 530 nm and emission at 590 nm. […]

[2] = tested on: MDA-MB231 triple negative breast cancer (TNBC) cells; assay: AlamarBlue assay, MDA-MB231; type: cell-based, human; conditions: for Cellular activity in TNBCs (MDA-MB231), alamarBlue: Fig.1f, replicates; for IC50: Homo sapiens, MDA-MB-231, 72 h, 72 h treatment, nM, read-out: IC50, cellular activity in MDA-MB231 (alamarBlue)
Experimental: as §1, §2, §3, §4

[3] = Fig.1d, concentration(nM) 0.0021442
[4] = Fig.1d, concentration(nM) 0.061236
[5] = Fig.1d, concentration(nM) 0.103
[6] = Fig.1d, concentration(nM) 0.59176
[7] = Fig.1d, concentration(nM) 1.19382
[8] = Fig.1d, concentration(nM) 1.79588
[9] = Fig.1d, concentration(nM) 2.39794
[10] = concentration column prints 2.52288

IC50 (BRD4 (BD1+BD2)) [nM]	Biochemical activity against BRD4 (BD1 + BD2) (BRD4 (BD1+BD2); [3])	Biochemical activity against BRD4 (BD1 + BD2) (BRD4 (BD1+BD2); [4])	Biochemical activity against BRD4 (BD1 + BD2) (BRD4 (BD1+BD2); [5])	Biochemical activity against BRD4 (BD1 + BD2) (BRD4 (BD1+BD2); [6])	Biochemical activity against BRD4 (BD1 + BD2) (BRD4 (BD1+BD2); [7])	Biochemical activity against BRD4 (BD1 + BD2) (BRD4 (BD1+BD2); [8])	Biochemical activity against BRD4 (BD1 + BD2) (BRD4 (BD1+BD2); [9])	Biochemical activity against BRD4 (BD1 + BD2) (BRD4 (BD1+BD2); Fig.1d, concentration(nM) 3)	IC50 [1] [nM]	Structure (SMILES)	Cellular activity in SCLCs (H211), alamarBlue ([1]; concentration 0.0169701)	Cellular activity in SCLCs (H211), alamarBlue ([1]; concentration 0.0398488)	Cellular activity in SCLCs (H211), alamarBlue ([1]; concentration 0.137272)	Cellular activity in SCLCs (H211), alamarBlue ([1]; concentration 0.614394)	Cellular activity in SCLCs (H211), alamarBlue ([1]; concentration 1.09152)	Cellular activity in SCLCs (H211), alamarBlue ([1]; concentration 1.56864)	Cellular activity in SCLCs (H211), alamarBlue ([1]; concentration 2.04576)	Cellular activity in SCLCs (H211), alamarBlue ([1]; concentration 3)	Cellular activity in SCLCs (H211), alamarBlue [1, 10]	Cellular activity in TNBCs (MDA-MB231), alamarBlue ([2]; concentration 0.15)	also measured
10.2										Cc1nnn(C)c1-c1cnc2c3c4ccn(C)c4ccc3n([C@H](c3ccccc3)C3CCOCC3)c2c1 [NHWD-830]											Biochemical activity against BRD4 (BD1 + BD2) (BRD4 (BD1+BD2); Fig.1b, concentration(nM) 0.0339849): 0.8628 and 1.4579; Biochemical activity against BRD4 (BD1 + BD2) (BRD4 (BD1+BD2); Fig.1b, concentration(nM) 0.137272): 6.575 and 2.559; Biochemical activity against BRD4 (BD1 + BD2) (BRD4 (BD1+BD2); Fig.1b, concentration(nM) 0.614394): 10.2946 and 5.683; Biochemical activity against BRD4 (BD1 + BD2) (BRD4 (BD1+BD2); Fig.1b, concentration(nM) 1.09152): 69.3038 and 62.4692; Biochemical activity against BRD4 (BD1 + BD2) (BRD4 (BD1+BD2); Fig.1b, concentration(nM) 1.56864): 79.3216 and 83.6358; Biochemical activity against BRD4 (BD1 + BD2) (BRD4 (BD1+BD2); Fig.1b, concentration(nM) 2.04576): 95.8346 and 94.942; Biochemical activity against BRD4 (BD1 + BD2) (BRD4 (BD1+BD2); Fig.1b, concentration(nM) 2.52288): 100.744 and 99.5537; Biochemical activity against BRD4 (BD1 + BD2) (BRD4 (BD1+BD2); Fig.1b, concentration(nM) 3): 101.346 and 101.785
28.3 ± 1.45	6.699 and 2.7152	2.407 and 5.845	1.577 and 18.3661	2.146 and 9.5447	15.5205 and 30.3178	82.9618 and 83.2464	99.4664 and 98.6128	101.174 and 100.889	38 ± 1.58	Cc1nnn(C)c1-c1cnc2c3cc4c(cnn4C)cc3n([C@H](c3ccccc3)C3CCOCC3)c2c1 [NHWD-840]	11.62 and 22.01	7.96 and 8.04	3.53 and 13.11	11.24 and 2.1	18.38 and 12.66	47.24 and 47.49	87.44 and 87.79	95.52 and 94.98	93.3 and 93.73	9.03 and 8.43	Cellular activity in TNBCs (MDA-MB231), alamarBlue ([2]; concentration 0.6): 17.61 and 17.32; Cellular activity in TNBCs (MDA-MB231), alamarBlue ([2]; concentration 1): 35.92 and 25.61; Cellular activity in TNBCs (MDA-MB231), alamarBlue ([2]; concentration 1.5): 53.39 and 55.36; Cellular activity in TNBCs (MDA-MB231), alamarBlue ([2]; concentration 2): 70.13 and 73.2; Cellular activity in TNBCs (MDA-MB231), alamarBlue ([2]; concentration 2.5): 91.51 and 91.02; Cellular activity in TNBCs (MDA-MB231), alamarBlue ([2]; concentration 3): 94.65 and 95.19; Cellular activity in TNBCs (MDA-MB231), alamarBlue ([2]; concentration -0.3): 6.21 and 5.27; Cellular activity in TNBCs (MDA-MB231), alamarBlue ([2]; concentration -0.9): 2.77 and 4.58; IC50 [2]: 31.6 ± 1.5 nM
20.6 ± 1.31	0.1541 and 1.269	12.3903 and 11.5366	4.399 and 8.952	7.837 and 3	31.456 and 32.5943	96.9054 and 95.198	100.036 and 100.889	99.751 and 100.889	16 ± 1.21	Cc1nnn(C)c1-c1cnc2c3cc4cnn(C)c4cc3n([C@H](c3ccccc3)C3CCOCC3)c2c1 [NHWD-850]	0.35 and 1.87	0.32 and 1.84	0.23 and -0.84	7.16 and 14.38	35.94 and 34.48	89.1 and 88.35	90.09	89.78 and 89.22	89.03 and 89.34	15.75 and 17.7	Cellular activity in TNBCs (MDA-MB231), alamarBlue ([2]; concentration 0.6): 25.28 and 23.6; Cellular activity in TNBCs (MDA-MB231), alamarBlue ([2]; concentration 1): 46.11 and 48.16; Cellular activity in TNBCs (MDA-MB231), alamarBlue ([2]; concentration 1.5): 71.17 and 69.3; Cellular activity in TNBCs (MDA-MB231), alamarBlue ([2]; concentration 2): 82.44 and 82.62; Cellular activity in TNBCs (MDA-MB231), alamarBlue ([2]; concentration 2.5): 86.67 and 86.03; Cellular activity in TNBCs (MDA-MB231), alamarBlue ([2]; concentration 3): 88.63 and 88.4; Cellular activity in TNBCs (MDA-MB231), alamarBlue ([2]; concentration -0.3): 7.16 and 12.83; Cellular activity in TNBCs (MDA-MB231), alamarBlue ([2]; concentration -0.9): 4.44 and 11.66; IC50 [2]: 14.5 ± 1.16 nM
9.33 ± 0.97	1.269 and 4.138	4.399 and 1.862	3 and 0.4387	12.3903 and 19.5044	74.9941 and 70.1565	100.036 and 99.751	101.174 and 100.605	100.889 and 100.32	8.06 ± 0.91	Cc1nnn(C)c1-c1cnc2c3c4c(ccc3n([C@H](c3ccccc3)C3CCOCC3)c2c1)cnn4C [NHWD-860]	1.74 and 11.45	4.56 and 9.08	4.2 and 14.84	15.53 and 29.79	68.35 and 72.54	88.44 and 89.49	90.64 and 90.52	89.32 and 90.99	89.13 and 90.21	14.34 and 13.82	Cellular activity in TNBCs (MDA-MB231), alamarBlue ([2]; concentration 0.6): 35.72 and 34.62; Cellular activity in TNBCs (MDA-MB231), alamarBlue ([2]; concentration 1): 67.92 and 71.9; Cellular activity in TNBCs (MDA-MB231), alamarBlue ([2]; concentration 1.5): 82.83 and 82.68; Cellular activity in TNBCs (MDA-MB231), alamarBlue ([2]; concentration 2): 87.1 and 88.94; Cellular activity in TNBCs (MDA-MB231), alamarBlue ([2]; concentration 2.5): 87.8 and 87.94; Cellular activity in TNBCs (MDA-MB231), alamarBlue ([2]; concentration 3): 90.46 and 89.59; Cellular activity in TNBCs (MDA-MB231), alamarBlue ([2]; concentration -0.3): 5.89 and 8.33; Cellular activity in TNBCs (MDA-MB231), alamarBlue ([2]; concentration -0.9): 3.7 and 7.12; IC50 [2]: 7.08 ± 0.85 nM
